# Data: patent publication US11767316B2, “Non-fused thiophene derivatives and their uses” (ENYO PHARMA, priority 2018, dated 2023)
# Tests used:
# [1] = target: T1, CISD1 Gene Product (mitoNEET) (Homo sapiens, UniProt Q9NZ45); assay: Stability of Fe-S cluster binding of purified NEET protein (absorbance 458 nm), mitoNEET; type: biochemical
# T1 sequence (Q9NZ45 33-108 limits assumed): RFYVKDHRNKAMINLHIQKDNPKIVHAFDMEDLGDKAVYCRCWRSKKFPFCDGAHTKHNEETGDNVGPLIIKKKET
# Description: The modulator effect on the NEET proteins encoded by human CISD1, CISD2, and CISD3 genes by the compounds of the invention has been tested and is reported below. Particularly, the biochemical function of the NEET proteins is measured by the stability of Fe—S cluster binding of the purified NEET proteins.
# The Fe—S cluster binding capacity of NEET proteins is known to be coordinated by four amino-acids in a stretch of 16 (three Cysteine and one Histidine). As the lability of the Fe—S cluster of NEET proteins is sensitive to the environment, cluster stability measurements are one of the measures of interactions of NEET proteins with small molecules and compounds. NEET protein/2Fe-2S cluster stability can be assessed by monitoring the decay in absorbance of its characteristic 458-nm peak (characteristic of the oxidized 2Fe-2S cluster) over time. Each NEET protein (mitoNEET, NAF-1 and Miner 2) was tested for its Fe—S binding in the absence or presence of a compound according to the invention (see table 3 below). […]
# At pH 6, all the three NEET proteins (mitoNEET, NAF-1 and Miner 2) have a characteristic rate of loss of the bound Fe—S cluster that can be measured by the decrease of absorbance at wavelength 458 nm over time, using a spectrophotometer. […]
# A reaction mix containing DMSO diluted in the Bis-Tris Buffer with or without a compound of the invention was prepared. […] The absorbance at wavelength 458 nm was taken at 5 minutes intervals at 37° C. with a spectrofluorimeter. […]
# In addition to time monitoring, residual bound Fe—S cluster to NEET protein was measured at the final point of the spectrometry assay for each Test sample and compared to the Control sample data (in parenthesis table 3). This residual binding is measured by the differential percentage between the absorbance 458 nm at time zero and the absorbance 458 nm at the end of the experiment (i.e. respectively 500 or 180 minutes as described hereabove), showing the percentage of NEET protein still able to bind a Fe—S cluster. […]
# NFκB = NFκB reporter assay (NanoLuciferase) in A549 cells, TNFα stimulation; type: cell-based; conditions: Homo sapiens, 4 ng/ml TNFα, 6 hours
# Excerpt: Compounds of the present invention have been tested for their capacity to inhibit NFκB.
# The NFκB reporter construct was made by cloning 5 NFκB responsive elements upstream of a NanoLuciferase reporter gene flanked by AAVS1 genomic sequences.
# NFκB Responsive element fused with NanoLuciferase and SV40 late Poly(A) signal was amplified from pNL3.2-NFκB-Nluc (Promega) using NFKB-NLUC-F and NFKB-NLUC-R primers and inserted by Infusion (TaKaRa) in AAVS1 SA-2A-puro-pA donor plasmid (Hockemeyer et al, Nat Biotechnol. 2009, 27, 851-7) digested by Sal1. pCRISPR AAVS1-T2 expressing a guide RNA (gRNA) to target human AAVS1 (T2 target sequence) was constructed by inserting AAVS1-T2A hybridized primers in pLentiCRISPR v2-blast (Sanjana et al, Nat Methods. 2014, 11, 783-4) digested by Bsmb1.
# A549 cells were transfected by the plasmids and puromycine selected for 5 days (1 μg mL-1). Then clones were obtained by limiting dilution and selected to maximize TNFα dependent NFkB-NanoLuciferase induction.
# The reporter cells were seeded on a 96-well plate for overnight with DMEM including 10% FBS. Test compounds were added at varying concentrations. The cells then were treated with 4 ng/ml TNFα (Peprotech, ref E251) in DMEM+10% FBS. NanoGlo luciferase assay (Promega) was carried out 6 hours later. Luminescence was measured using a Spark 20M spectrofluorimeter (Tecan). Values were normalized to the luminescence measured in untreated cells.
compound,measurement,setting,value
O=C(Nc1scc(C2CCc3ccccc3C2)c1C(=O)O)c1ccccc1 (stereo not shown) [#16],Time (in minutes) to achieve 50% loss of bound cluster (Absorbance 458 nm),"[1]; mitoNEET 20 μM, compound 60 μM, pH 6, 37° C., vehicle control 80",35 (80) minutes
same,Residual cluster bound at end of experiment (Percentage Absorbance 458 nm at time zero),"[1]; mitoNEET, end of experiment 180 minutes, compound 60 μM, pH 6, vehicle control 16%",0% (16%)
same,Stabiliser or destabiliser of NEET protein/Fe-S cluster binding,"[1]; mitoNEET, destabiliser = time to 50% cluster loss decreased by more than 25% vs control",destabilisers
same,EC50,NFκB,80 nM
